The source of these data is patent publication US20240132492A1, “PYRIDOPYRIMIDINE-BASED COMPOUND AND APPLICATION THEREOF” (JINAN UNIVERSITY, priority 2021, published 2024).

One may read the IC50 as the concentration needed to halve the response being measured. Read a low IC50 as greater potency. One may read the Dmax as the largest share of the target that was removed. High values mean a fuller loss of target, low ones a partial loss of target.

Format in all cases: cell-based
One assay deals with H1975. Briefly: CCK-8 tumor cell proliferation, H1975. The settings on record: Homo sapiens, NCI-H1975, H1975 cells, 72 hours. The gist of the method: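 IC50 values, given as mean±SD, come from curve fitting of CCK-8 proliferation data. Cells (2000-3000/well, complete medium) received compounds at 0.000508 μM-10 μM for 72 hours following overnight attachment.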
The test system of another assay is MDA-MB-453. The assay can be described thus: CCK-8 tumor cell proliferation, MDA-MB-453. The settings on record: Homo sapiens, MDA-MB-453 cells, 72 hours. On the procedure: (§1) Tumor cells (see Table 2 to Table 5) were inoculated in 96-well plates in complete culture medium (2000-3000 cells/well). After overnight incubation, the compounds with different concentrations (0.000508 μM-10 μM) were used to treat the cells separately for 72 hours. CCK-8 (Cell Counting Kit 8, Dojindo Laboratories, Kumamoto, Japan) experiment was used to evaluate cell proliferation. GraphPad Prism 5.0 software (La Jolla, CA) was used to calculate the half-maximal inhibitory concentration (IC50) values by fitting the concentration response curve. Each IC50 value was represented as an average value±SD.

In another assay the target is T1, AKT1 (Homo sapiens, UniProt P31749).
T1 construct: AKT1, AKT2, and AKT3 proteins in H1975-OR cells; endogenous in cells; host or cells: H1975-OR (osimertinib-resistant H1975)
The assay can be described thus: Western Blot, degradation of AKT1 protein in H1975-OR cells. The settings on record: 1000 nM, 24 hours, maximum degradation rate. The gist of the method:
(§2)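 H1975-OR cells are Osimertinib-resistant H1975, adapted stepwise from 50 nM to 3 μM Osimertinib. Cells were treated with compound for 24 h, lysed, and immunoblotted with ECL detection. Band grayscale density was quantified.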
For orientation: In western blotting, separated proteins are transferred to a membrane and probed.

For a further assay, the target named is T2, AKT2 (Homo sapiens, UniProt P31751).
T2 construct: AKT1, AKT2, and AKT3 proteins in H1975-OR cells; endogenous in cells; host or cells: H1975-OR (osimertinib-resistant H1975)
Briefly: Western Blot, degradation of AKT2 protein in H1975-OR cells. The settings on record: 1000 nM, 24 hours, maximum degradation rate. An outline of the steps:
as §2

In a further assay the test system is Bel-7402. The assay can be described thus: CCK-8 tumor cell proliferation, Bel-7402. The settings on record: Homo sapiens, Bel-7402 cells, 72 hours. As to the method: as §1
The target of a further assay is AKT3 (Homo sapiens, UniProt Q9Y243). Briefly: Western Blot, degradation of AKT3 protein in H1975-OR cells. Set-up: endogenous in cells; host or cells: H1975-OR (osimertinib-resistant H1975). The settings on record: 1000 nM, 24 hours, maximum degradation rate. An outline of the steps:
as §2

For another assay, the system named is BT-549. The assay can be described thus: CCK-8 tumor cell proliferation, BT-549. The settings on record: Homo sapiens, BT-549 cells, 72 hours. On the procedure:
as §1

For another assay, the system named is H1975OR. Briefly: CCK-8 tumor cell proliferation, H1975OR. The settings on record: H1975OR cells (Osimertinib resistant), 72 hours. An outline of the steps:
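Osimertinib-resistant H1975 cells, selected by raising Osimertinib stepwise from 50 nM to 3 μM, were treated for 72 h with compound at 0.000508–10 μM. Proliferation was read by CCK-8, and IC50 came from fitting the concentration–response curve, given as mean ± SD.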

The test system of the next assay is MDA-MB-231. Briefly: CCK-8 tumor cell proliferation, MDA-MB-231. The settings on record: Homo sapiens, MDA-MB-231 cells, 72 hours. As to the method:
as §1

The test system of another assay is MIAPACA-2. Briefly: CCK-8 tumor cell proliferation, MIAPACA-2. The settings on record: Homo sapiens, MIA PaCa-2, MIAPACA-2 cells, 72 hours. As to the method:
as §1

Another assay relates to A549. Briefly: CCK-8 tumor cell proliferation, A549. The settings on record: Homo sapiens, A549 cells, 72 hours. As to the method:
as §1

A further assay has as its system BXPC-3. The assay can be described thus: CCK-8 tumor cell proliferation, BXPC-3. The settings on record: Homo sapiens, BXPC-3 cells, 72 hours. On the procedure:
as §1

Another assay has as its system PANC-1. The assay can be described thus: CCK-8 tumor cell proliferation, PANC-1. The settings on record: Homo sapiens, PANC-1 cells, 72 hours. As to the method: as §1
Another assay concerns Huh7. Briefly: CCK-8 tumor cell proliferation, Huh7. The settings on record: Homo sapiens, Huh-7, Huh7 cells, 72 hours. On the procedure: as §1
For a further assay, the system named is HCC1937. The assay can be described thus: CCK-8 tumor cell proliferation, HCC1937. The settings on record: Homo sapiens, HCC1937 cells, 72 hours. On the procedure:
as §1

The subject of a further assay is K562. Briefly: CCK-8 tumor cell proliferation, K562. The settings on record: Homo sapiens, K562 cells, 72 hours. On the procedure: as §1
The subject of a further assay is HCT116. The assay can be described thus: CCK-8 tumor cell proliferation, HCT116. The settings on record: Homo sapiens, HCT-116, HCT116 cells, 72 hours. As to the method:
as §1

Some results are limits rather than exact numbers.

AKT3, sequence (Q9Y243 whole entry): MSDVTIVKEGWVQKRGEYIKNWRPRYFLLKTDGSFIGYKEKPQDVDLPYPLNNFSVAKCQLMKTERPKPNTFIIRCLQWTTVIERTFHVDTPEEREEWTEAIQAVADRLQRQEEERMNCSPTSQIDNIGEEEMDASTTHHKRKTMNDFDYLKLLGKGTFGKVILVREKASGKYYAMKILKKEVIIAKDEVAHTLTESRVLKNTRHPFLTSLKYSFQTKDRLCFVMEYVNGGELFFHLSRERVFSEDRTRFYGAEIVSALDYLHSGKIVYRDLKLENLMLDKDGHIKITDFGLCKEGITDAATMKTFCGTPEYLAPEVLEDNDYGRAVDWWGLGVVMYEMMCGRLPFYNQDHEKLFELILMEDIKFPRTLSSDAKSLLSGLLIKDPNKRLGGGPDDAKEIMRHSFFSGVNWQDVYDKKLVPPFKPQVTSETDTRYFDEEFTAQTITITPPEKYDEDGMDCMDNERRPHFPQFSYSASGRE
T2 sequence (P31751 whole entry): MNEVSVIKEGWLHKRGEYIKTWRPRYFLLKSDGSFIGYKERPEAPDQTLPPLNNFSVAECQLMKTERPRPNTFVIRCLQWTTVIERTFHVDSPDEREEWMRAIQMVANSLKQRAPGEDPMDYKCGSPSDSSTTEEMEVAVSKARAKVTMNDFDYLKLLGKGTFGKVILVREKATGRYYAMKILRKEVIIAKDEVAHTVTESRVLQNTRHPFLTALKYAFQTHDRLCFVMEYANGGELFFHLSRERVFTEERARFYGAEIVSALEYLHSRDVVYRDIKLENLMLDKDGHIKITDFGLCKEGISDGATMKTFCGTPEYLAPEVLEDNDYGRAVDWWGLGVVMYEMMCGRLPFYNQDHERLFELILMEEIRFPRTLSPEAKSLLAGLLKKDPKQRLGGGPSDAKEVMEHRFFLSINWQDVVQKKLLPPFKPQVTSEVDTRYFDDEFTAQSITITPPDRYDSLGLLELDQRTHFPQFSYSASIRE
T1 sequence (P31749 whole entry): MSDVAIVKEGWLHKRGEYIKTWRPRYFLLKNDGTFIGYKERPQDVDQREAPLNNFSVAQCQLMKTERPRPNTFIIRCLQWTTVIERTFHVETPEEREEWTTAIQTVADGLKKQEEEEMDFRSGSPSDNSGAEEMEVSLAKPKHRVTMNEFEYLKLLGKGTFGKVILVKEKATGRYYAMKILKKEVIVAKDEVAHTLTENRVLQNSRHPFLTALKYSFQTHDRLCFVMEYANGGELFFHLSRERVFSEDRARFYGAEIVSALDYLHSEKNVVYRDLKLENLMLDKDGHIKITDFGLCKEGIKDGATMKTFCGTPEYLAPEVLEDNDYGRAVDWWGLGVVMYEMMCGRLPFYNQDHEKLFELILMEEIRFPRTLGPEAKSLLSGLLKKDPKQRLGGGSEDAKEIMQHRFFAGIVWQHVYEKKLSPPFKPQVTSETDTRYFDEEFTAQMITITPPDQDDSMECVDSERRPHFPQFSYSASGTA

With `COc1cc(N2CCN(CCCCCCCCCCCCNC(=O)CC34CC5CC(CC(C5)C3)C4)CC2)ccc1Nc1ncc2c(C)cc(=O)n(-c3cccc(NCC4CC4)c3)c2n1` [ZX-HYT-19, 2-((3R, 5R, 7R)-adamantan-1-yl)-N-(12-(4-(4-(8-(3-((cyclopropylmethyl)amino)phenyl)-5-methyl-7-oxy-7,8-dihydropyridino [2,3-d]pyrimidin-2-yl)amino)-3-methoxyphenyl)piperazin-1-yl) dodecyl) acetamide], the IC50 in the assay on H1975 was 2.29 µM; with MDA-MB-453, > 10 µM; with Bel-7402, 0.041 µM; in the assay on BT-549, 0.00421 µM; with H1975OR, 3.46 µM; in the assay on MDA-MB-231, < 0.001 µM. Moreover, the Dmax at 1 µM on AKT1 turned out to be 0%; at AKT2 it was 0%; on AKT3 it was 28%.

As for `COc1cc(N2CCN(C(=O)CC34CC5CC(CC(C5)C3)C4)CC2)ccc1Nc1ncc2c(C)cc(=O)n(-c3cccc(NC(=O)C4CC4)c3)c2n1` [ZX-HYT-50, N-(3-(2-((4-(4-(2-((3R, 5R, 7R)-adamantan-1-yl)acetyl)piperazin-1-yl)-2-methoxyphenyl)amino)-5-methyl-7-oxypyridino [2,3-d]pyrimidin-8 (7H)-yl)phenyl) cyclopropane formamide], the IC50 with MIAPACA-2 was 0.00864 µM; in the assay on MDA-MB-453, > 10 µM; in the assay with A549, 0.668 µM; in the assay on BXPC-3, 0.0421 µM; in the assay with PANC-1 it was 0.0137 µM; in the assay with Bel-7402, > 10 µM. Further, the IC50 is 0.632 µM in the assay on Huh7; > 10 µM in the assay with HCC1937; > 10 µM in the assay on BT-549; 0.0293 µM in the assay with K562; 0.0119 µM with HCT116; 0.155 µM in the assay on MDA-MB-231.

As for `COc1cc(N2CCN(C(=O)NC34CC5CC(CC(C5)C3)C4)CC2)ccc1Nc1ncc2c(C)cc(=O)n(-c3cccc(NC(=O)C4CC4)c3)c2n1` [ZX-HYT-64, N-((3S, 5S, 7S)-adamantan-1-yl)-4-(4-((8-(3-(cyclopropaneformamido)phenyl)-5-methyl-7-oxy-7,8-dihydropyridino [2,3-d]pyrimidin-2-yl)amino)-3-methoxyphenyl) piperazin-1-formamide], the IC50 was > 10 µM in the assay with MDA-MB-453; 0.37 µM in the assay with Bel-7402; 4 µM in the assay with HCC1937; 0.141 µM in the assay on BT-549; 0.0152 µM in the assay with MDA-MB-231.

On to `COc1cc(N2CCC(C(=O)NCC34CC5CC(CC(C5)C3)C4)CC2)ccc1Nc1ncc2c(C)cc(=O)n(-c3cccc(NC(=O)C4CC4)c3)c2n1` [ZX-HYT-89, N-(((3R, 5R, 7R)-adamantan-1-yl)methyl)-1-(4-((8-(3-(cyclopropaneformamido)phenyl)-5-methyl-7-oxy-7,8-dihydropyridino [2,3-d]pyrimidin-2-yl)amino)-3-methoxyphenyl) piperidin-4-formamide], for which the figures for the IC50 in the assay on Huh7 and in the assay with BT-549 were 0.12 µM and 0.0267 µM, respectively.

In the case of `COc1cc(N2CC3(CN(C(=O)CC45CC6CC(CC(C6)C4)C5)C3)C2)ccc1Nc1ncc2c(C)cc(=O)n(-c3cccc(NC(=O)C4CC4)c3)c2n1` [ZX-HYT-91, N-(3-(2-((4-(6-(2-((3R,5R,7R)-adamantan-1-yl)acetyl)-2,6-diazospira [3.3]hept-2-yl))-2-methoxyphenyl)amino)-5-methyl-7-oxypyridino [2,3-d]pyrimidin-8 (7H)-yl) phenyl) cyclopropane formamide], the IC50 amounted to 3 µM in the assay with Huh7 and 0.937 µM in the assay with BT-549.
